# Assay results published in patent US11419335B2, “N-arylated analogues and uses thereof” (University of Florida Research Foundation, Incorporated, priority 2016, dated 2022).
# Like-named read-outs stand apart in the source and are kept apart here. Marks after values point to notes of the source that are not given here.
# Key:
# [1] = test system: methicillin-resistant Staphylococcus aureus MRSA-2 (clinical isolate); assay: MIC broth microdilution, MRSA-2; format: cell-based; details: for MRSA-2 MIC: Table 2A
# Summary of the method: (§1)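 Values are lowest no-growth concentrations after 16–18 h at 37° C in Luria Broth, inoculum ~10^5 log-phase cells, eleven two-fold dilutions spanning 0.10–100 μM, OD600 used to confirm. DMSO, top 1% v/v, served as vehicle and negative control.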
# [2] = test system: MRSA BAA-1707; assay: MIC broth microdilution, MRSA BAA-1707; format: cell-based, Staphylococcus aureus
# Summary of the method: (§2)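 Serial two-fold dilutions (0.10–100 μM) in LB, CLSI broth microdilution format. Inoculum: ~10^5 log-phase cells per well.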
# [3] = test system: methicillin-resistant Staphylococcus epidermidis (MRSE strain ATCC 35984); assay: MIC broth microdilution, MRSE 35984; format: cell-based; details: for MIC S. epidermidis MRSE 35984: Table 1A; for MIC MRSE 35984: Table 4
# Summary of the method: as §1
# [4] = test system: vancomycin-resistant Enterococcus faecium (VRE strain ATCC 700221); assay: MIC broth microdilution, VRE 700221; format: cell-based; details: for MIC E. faecium VRE 700221: Table 1A; for MIC VRE 700221: Table 4; for VRE MIC: Table 2A
# Summary of the method: as §1
# [5] = test system: Acinetobacter baumannii (ATCC 1794); assay: MIC broth microdilution, A. baumannii 1794; format: cell-based; details: for MIC: Acinetobacter baumannii, ATCC1794; for MIC A. baumannii 1794: Table 1A
# Summary of the method: as §1
# [6] = test system: Pseudomonas aeruginosa (PAO1); assay: MIC broth microdilution, PAO1; format: cell-based
# Summary of the method: as §1
# [7] = test system: methicillin-sensitive Staphylococcus aureus ATCC 29213; assay: MIC broth microdilution, S. aureus 29213; format: cell-based
# Summary of the method: as §2
# [8] = test system: MRSA-1 (clinical isolate); assay: MIC broth microdilution, MRSA-1; format: cell-based, Staphylococcus aureus
# Summary of the method: as §2
# [9] = test system: SA-129 (clinical isolate); assay: MIC broth microdilution, SA-129; format: cell-based, Staphylococcus aureus
# Summary of the method: as §2
# [10] = test system: SA-147 (clinical isolate); assay: MIC broth microdilution, SA-147; format: cell-based, Staphylococcus aureus
# Summary of the method: as §2
# [11] = test system: SA-138 (clinical isolate); assay: MIC broth microdilution, SA-138; format: cell-based, Staphylococcus aureus
# Summary of the method: as §2
# [12] = test system: SA-156 (clinical isolate); assay: MIC broth microdilution, SA-156; format: cell-based, Staphylococcus aureus
# Summary of the method: as §2
# [13] = test system: MRSA BAA-44; assay: MIC broth microdilution, MRSA BAA-44; format: cell-based, Staphylococcus aureus
# Summary of the method: as §2
# [14] = test system: human red blood cells (hRBC); assay: Hemolysis of red blood cells; format: cell-based; details: for RBC HC50: Table 4, concentration required to lyse 50% of red blood cells
# Summary of the method: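 hRBCs (2% suspension) exposed to compounds at 0.2–200 μM (ten-point dose-response) for 1 h at 37 °C; after centrifugation, haemoglobin release read as supernatant OD at 405 nm. DMSO set as 0% and Triton X as 100% haemolysis; HC50 from dose-response curves, three independent experiments.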
# [15] = Table 1B, read-out: MIC MRSA BAA-1707
# [16] = Table 2A, read-out: MRSA BAA-1707 MIC
# [17] = Table 3, read-out: MIC MRSA BAA-1707
structure (smiles),measurement,setting,value
"CCCCCCCCCCCCCCCCn1cc[n+](Cc2ccccc2)c1C [NH125, 3-benzyl-1-hexadecyl-2-methyl-1H-imidazol-3-ium bromide, reference compound]",MIC,"[1]; Staphylococcus aureus, BAA-1707 / MRSA, MRSA-2 and MRSA BAA-1707, read-out: MIC against two MRSA strains",2.35 to 4.69 µM
same,MIC,"[1]; Staphylococcus aureus, MRSA, Table 1, read-out: MIC MRSA-2",4.69 µM
same,MIC,"[1]; Staphylococcus aureus, MRSA, Table 4, read-out: MIC MRSA-2",4.69 µM
same,MIC,"[1]; Staphylococcus aureus, MRSA, Table 3, read-out: MIC MRSA-2",3.13 µM
same,MIC MRSA-2,[1]; Table 1A,4.69^a
same,MIC,"[2]; Staphylococcus aureus, Table 1, read-out: MIC MRSA BAA-1707",2.35 µM
same,MIC,"[2]; Staphylococcus aureus, Table 2, read-out: MRSA BAA-1707 MIC",2.35 µM
same,MIC,"[2]; Staphylococcus aureus, Table 4, read-out: MIC MRSA 1707",2.35 µM
same,MIC MRSA BAA-1707,[2]; Table 3,2.35^a μM
same,MIC,"[3]; Staphylococcus epidermidis, Table 1, read-out: MIC MRSE 35984",4.69 µM
same,MIC,"[3]; Staphylococcus epidermidis, Table 2, read-out: MRSE 35984 MIC",4.69 µM
same,MIC S. epidermidis MRSE 35984,[3],4.69^a
same,MIC MRSE 35984,[3],4.69a micromolar
same,MIC,"[4]; Table 1, read-out: MIC VRE 700221",3.13 µM
same,MIC E. faecium VRE 700221,[4],3.13 µM
same,MIC,"[4]; Table 2, read-out: VRE 700221 MIC",3.13 µM
same,MIC VRE 700221,[4],3.13 µM
same,MIC,"[5]; Table 1, read-out: MIC A. baumannii 1794",37.5 µM
same,MIC,"[5]; Table 4, read-out: MIC A. bau. 1794",37.5 µM
same,MIC A. baumannii 1794,[5],37.5^a
same,MIC,"[6]; Pseudomonas aeruginosa, PAO1, Table 1",> 100 µM
same,MIC PAO1,[6]; Table 1A,> 100 µM
same,MIC PAO1,[6]; Table 4,>100 µM
same,MIC,"[7]; Staphylococcus aureus, ATCC29213, Table 3",4.69 µM
same,MIC,"[8]; Staphylococcus aureus, MRSA, Table 3",6.25 µM
same,MIC,"[9]; Staphylococcus aureus, Table 3",4.69 µM
same,MIC,"[10]; Staphylococcus aureus, Table 3",4.69 µM
same,MIC,"[11]; Staphylococcus aureus, Table 3",6.25 µM
same,MIC,"[12]; Staphylococcus aureus, Table 3",6.25 µM
same,MIC,"[13]; Staphylococcus aureus, Table 3",4.69 µM
same,hemolytic activity,[14],potent hemolytic activities
same,HC50,"[14]; human, 1 h, pH 7.2",35.6 µM
CCCCCCCCCCCCCCCCn1cc[n+](Cc2cccc(F)c2)c1C.[Br-] [Compound 18],MIC MRSA-2,[1]; Table 1A,2.35^a
same,MIC MRSA-2,[1]; Table 1B,2.35^a μM
same,MRSA-2 MIC,[1],2.35^a μM
same,MIC MRSA-2,[1]; Table 3,2.35^a μM
same,MIC MRSA-2,[1]; Table 4,2.35a micromolar
same,MIC,[2]; [15],1.56 µM
same,MIC,[2]; [16],1.56 µM
same,MIC,[2]; [17],1.56 µM
same,MIC MRSA 1707,[2]; Table 4,1.56 µM
same,MIC S. epidermidis MRSE 35984,[3],1.17^a
same,MRSE 35984 MIC,[3]; Table 2A,1.17^a μM
same,MIC MRSE 35984,[3],1.17a micromolar
same,MIC E. faecium VRE 700221,[4],1.56 µM
same,VRE MIC,[4],1.56 µM
same,MIC VRE 700221,[4],1.56 µM
same,MIC A. baumannii 1794,[5]; in µM,25
same,MIC A. bau. 1794,[5]; Table 4,25 µM
same,MIC PAO1,[6]; Table 1A,> 100 µM
same,MIC PAO1,[6]; Table 4,>100 µM
same,MIC S. aureus 29213,[7]; Table 1B,4.69^a μM
same,MIC S. aureus 29213,[7]; Table 3,4.69^a μM
same,MIC,[8]; Table 1B,3.13 µM
same,MIC,[8]; Table 3,3.13 µM
same,MIC,[9]; Table 1B,3.13 µM
same,MIC,[9]; Table 3,3.13 µM
same,MIC SA-147,[10]; Table 1B,2.35^a μM
same,MIC SA-147,[10]; Table 3,2.35^a μM
same,MIC,[11]; Table 1B,3.13 µM
same,MIC,[11]; Table 3,3.13 µM
same,MIC,[12]; Table 1B,3.13 µM
same,MIC,[12]; Table 3,3.13 µM
same,MIC MRSA BAA-44,[13]; Table 1B,2.35^a μM
same,MIC MRSA BAA-44,[13]; Table 3,2.35^a μM
same,HC50,[14]; Table 1A,16.7 µM
same,RBC HC50,[14],16.7 µM
CCCCCCCCCCCCCCCCn1cc(-c2ccccc2)[n+](C)n1.[I-] [Compound 30],MIC MRSA-2,[1]; Table 1A,3.13 µM
same,MIC,"[1]; Table 1B, read-out: MIC MRSA-2",6.25 µM
same,MRSA-2 MIC,[1],3.13 µM
same,MIC,"[1]; Table 3, read-out: MIC MRSA-2",6.25 µM
same,MIC MRSA-2,[1]; Table 4,3.13 µM
same,MIC,[2]; [15],3.13 µM
same,MIC,[2]; [16],3.13 µM
same,MIC,[2]; [17],3.13 µM
same,MIC MRSA 1707,[2]; Table 4,3.13 µM
same,MIC S. epidermidis MRSE 35984,[3],1.56 µM
same,MIC,"[3]; Table 2A, read-out: MRSE 35984 MIC",1.56 µM
same,MIC MRSE 35984,[3],1.56 µM
same,MIC E. faecium VRE 700221,[4],3.13 µM
same,VRE MIC,[4],3.13 µM
same,MIC VRE 700221,[4],3.13 µM
same,MIC A. baumannii 1794,[5]; in µM,12.5
same,MIC A. bau. 1794,[5]; Table 4,12.5 µM
same,MIC PAO1,[6]; Table 1A,> 100 µM
same,MIC PAO1,[6]; Table 4,>100 µM
same,MIC,[7]; Table 1B,3.13 µM
same,MIC,[7]; Table 3,3.13 µM
same,MIC MRSA-1,[8]; Table 1B,4.69^a μM
same,MIC MRSA-1,[8]; Table 3,4.69^a μM
same,MIC,[9]; Table 1B,1.56 µM
same,MIC,[9]; Table 3,1.56 µM
same,MIC,[10]; Table 1B,1.56 µM
same,MIC,[10]; Table 3,1.56 µM
same,MIC SA-138,[11]; Table 1B,2.35^a μM
same,MIC SA-138,[11]; Table 3,2.35^a μM
same,MIC SA-156,[12]; Table 1B,2.35^s μM
same,MIC SA-156,[12]; Table 3,2.35^a μM
same,MIC MRSA BAA-44,[13]; Table 1B,4.69^a μM
same,MIC MRSA BAA-44,[13]; Table 3,4.69^a μM
same,HC50,[14]; Table 1A,12.6 µM
same,RBC HC50,[14],12.6 µM
